Patent publication US8193168B2, “Use of a TRPM5 inhibitor to regulate insulin and GLP-1 release” (Redpoint Bio Corporation, priority 2007, dated 2012)

Tests used:
[1] = molecular target: T1, TRPM5 (Homo sapiens, UniProt Q9NZQ8); test: TRPM5 inhibition (FLIPR Membrane Potential Assay); assay type: cell-based
T1 sequence (Q9NZQ8 1-1165): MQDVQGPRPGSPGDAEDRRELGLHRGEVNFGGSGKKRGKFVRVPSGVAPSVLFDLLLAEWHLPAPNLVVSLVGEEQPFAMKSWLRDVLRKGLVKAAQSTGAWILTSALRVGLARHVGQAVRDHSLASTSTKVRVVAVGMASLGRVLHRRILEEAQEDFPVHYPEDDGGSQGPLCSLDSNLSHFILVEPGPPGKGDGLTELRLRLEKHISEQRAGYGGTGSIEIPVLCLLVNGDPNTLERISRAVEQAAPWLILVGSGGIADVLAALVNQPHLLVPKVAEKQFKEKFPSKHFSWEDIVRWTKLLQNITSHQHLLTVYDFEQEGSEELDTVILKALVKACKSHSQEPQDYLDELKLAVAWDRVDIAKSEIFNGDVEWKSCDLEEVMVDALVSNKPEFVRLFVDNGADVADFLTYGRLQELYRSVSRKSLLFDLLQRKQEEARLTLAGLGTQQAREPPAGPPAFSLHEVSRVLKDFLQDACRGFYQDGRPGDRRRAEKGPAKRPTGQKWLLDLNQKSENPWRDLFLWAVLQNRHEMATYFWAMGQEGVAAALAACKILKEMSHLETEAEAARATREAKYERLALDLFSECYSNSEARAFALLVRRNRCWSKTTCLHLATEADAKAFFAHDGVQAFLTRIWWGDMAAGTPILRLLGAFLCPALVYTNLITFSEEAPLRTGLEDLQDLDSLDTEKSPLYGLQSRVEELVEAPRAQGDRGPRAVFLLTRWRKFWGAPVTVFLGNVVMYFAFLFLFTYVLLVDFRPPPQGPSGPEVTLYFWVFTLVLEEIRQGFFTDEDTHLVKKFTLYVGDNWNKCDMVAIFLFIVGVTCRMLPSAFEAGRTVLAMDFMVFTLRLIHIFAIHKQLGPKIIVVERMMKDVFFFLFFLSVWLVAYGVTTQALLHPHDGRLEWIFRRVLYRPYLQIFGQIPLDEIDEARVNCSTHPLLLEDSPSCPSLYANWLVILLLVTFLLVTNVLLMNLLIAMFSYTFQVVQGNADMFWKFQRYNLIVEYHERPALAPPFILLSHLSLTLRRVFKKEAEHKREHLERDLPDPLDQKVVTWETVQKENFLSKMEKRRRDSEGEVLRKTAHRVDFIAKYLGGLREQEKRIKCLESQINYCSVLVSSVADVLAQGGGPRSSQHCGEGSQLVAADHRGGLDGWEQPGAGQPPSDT

[2] = test system: Beta-TC-6 cells; test: Insulin release enhancement in Beta-TC-6 cells (insulin ELISA); assay type: cell-based, mouse; settings: for Percent Enhancement of Insulin Secretion (10 μM): compound at 10 μM, compared to glucose-dependent insulin production
Protocol: Beta-TC-6 cells are an insulin-secreting cell line derived from transgenic mice expressing the large T-antigen of simian virus 40 (SV40) in pancreatic beta-cells as described by Poitout et al., Diabetes, 44:306-313 (1995). The cell line was obtained from ATCC cell bank CAT# CRL-11506 and grown in Dulbecco's Modified Eagle's Medium (DMEM) with 15% fetal bovine serum (FBS), 4 mM glutamine, 4.5 mM glucose 1500 mg/L sodium bicarbonate and 1× penn/strep antibiotic mix in a 37° C. incubator with 5% CO2. Cultures were routinely split 1:2 twice a week with the aid of trypsin.
On the day before the assay 0.1×10^6 Beta-TC-6 cells were plated into each well of 96 well plates, and the cells cultured overnight in growth media.
On the next day, growth media was removed from the plate and the monolayers rinsed with phosphate buffered saline (PBS) and pre-incubated 30 mins at 37° C. in Krebs-Ringer Bicarbonate Buffer (KRBB) consisting of 118.5 mM NaCl, 2.54 mM CaCl2, 1.19 mM KH2PO4, 4.74 mM KCl, 25 mM NaHCO3, 1.19 mM MgSO4, 10 mM HEPES buffer and 0.1% bovine serum albumin at pH 7.4. This buffer was removed and replaced with 100 μL of the same buffer containing various insulin release modulators: including various concentrations of glucose up to 12 mM and compounds up to 100 μM. Compounds stock solutions, e.g. 10-20 mM, were diluted in DMSO. Final DMSO concentrations in incubation buffer were 0.5% or less. Vehicle controls were included. Static incubations were then performed for 2 h at 37° C. The entire incubation volume was collected after the 2 h incubation for insulin assay.
ELISA Protocol for insulin determinations. The following protocol was used for doing ELISA using the Rat/Mouse Insulin ELISA Kit from Linco Research, Inc., CAT#EZRMI-13K and Amplex® Red Hydrogen Peroxide/Peroxidase Assay Kit, CAT#A22188, and Amplex® Red reagent (10-acetyl-3,7-dihydroxyphenoxazine) CAT#A12222.
All reagents were Pre-warmed to room temperature before setting up experiment.
1. Dilute the 10× washing buffer into 1× washing buffer. 50 mL+450 mL de-ionized water. Do 1:10 dilution to the cell culture supernatant (Beta-TC-6 cell incubation).
2. Use one column (8 wells) wells for standard samples and QC1 and QC2, typically 0 and 5 ng/mL of insulin. On some plates full standard curves for insulin obtained as shown below.
3. Cover the unused wells well. Wash each well 3 times with 300 μL of 1× washing buffer each time. (2 minutes each washing step on the shaker.) Decant Wash Buffer and remove the residual amount from all wells by inverting the plate and tapping it smartly onto absorbent towels several times.
4. Add 20 μL Assay Buffer into that blank well and 10 μL into those wells for standards and samples.
5. Add 10 μL rat insulin standards and samples to the appropriate wells.
6. Add 80 μL Detection Antibody to all wells. Cover the plate and incubate at room temperature for 2 hours.
7. Tear off the plate cover and decant solutions from the plate. Tap to remove residual solutions in well.
8. Wash well 3 times with diluted wash buffer 300 μL per well per wash (2 minutes each washing step on the shaker). Tap to remove residual solutions as before.
9. Add 100 μL Enzyme Solution to each well. Cover plate with sealer and incubate with moderate shaking at room temperature for 30 min on the microtiter plate shaker.
10. Remove sealer, decant solutions from the plate and tap plate to remove the residual fluid.
11. Wash wells 6 times with diluted Wash Buffer, 300 μL per well per wash. Decant and tap after each wash to remove residual buffer.
12. Prepare 5 mL working solution of […] Amolex Red reagent containing 2.0 mM H2O2. 4.45 mL of 1× Reaction buffer+50 μL 10 mM Amplex Reagent+500 μL 20 mM H2O2.
13. Add 100 μL of the Amplex Red reagent/H2O2 to each well.
14. Incubate the reactions. Incubate at room temperature for 30 minutes, protected from light (using foil to wrap the plate). […]

SMILES	IC50 [1]	insulin secretion ([2]; FIG. 5)	Percent Enhancement of Insulin Secretion (10 μM) [2]	glucose dependence of stimulation of insulin release ([2]; varying glucose concentration, FIG. 3 and FIG. 7)
COc1ccc(/C=N/NC(=O)Cc2cccc3ccccc23)cc1OC [Example 3, (E)-N′-(3,4-Dimethoxybenzylidene)-2-(naphthalene-1-yl)acetohydrazide]	0.6 µM	increases insulin secretion	250%	increases insulin secretion in a glucose-dependent manner
COc1ccc(/C=N/NC(=O)CCn2c3ccccc3c3ccccc32)cc1OC [Example 23, 3-Carbazol-9-ylpropionic acid (3,4-dimethoxybenzylidene)hydrazide]	0.5 µM		208%	
